Test results: patent publication US20050250784A1 (Miikana Therapeutics Corporation, priority 2004, published 2005)

System: MCF7 cells
Test: Whole cell cytotoxicity assay: Sulforhodamine B
Format: cell-based, Human
Settings: Homo sapiens; compound concentration 100 μM; MCF7 cell growth, 48 hours with drug, SRB staining
Description: The following procedure can be found on the Developmental Therapeutics Program NCI/NIH web site at http://dtp.nci.nih.gov/brancehes/btb/ivclsp.html.
1. Human tumor cell lines of HT29, A549 and MCF7 are grown in DMEM containing 10% fetal bovine serum and 2 mM L-glutamine. Cells are plated in a 96 well plate at a density of 5000 cells per well in 100 uL of growth medium and incubated at 37° C., 5% CO2, for 24 hours prior to the addition of experimental compounds.
2. Experimental drugs are solubilized in DMSO for a final concentration of 20 mM immediately prior to use. Drugs are further diluted in growth media for a total of nine drug concentrations and a growth control. At the 24 hour time point, one plate of cells is fixed in situ with TCA as a measurement of the cell population at time zero, or the time of drug addition.
3. The plates are further incubated with drug for an additional 48 hours.
4. The cells are fixed in situ by gently aspirating off the culture media and then adding 50 uL of ice cold 10% TCA per well and incubated at 4° C. for 60 minutes. The plates are washed with tap water five times and allowed to air dry for 5 minute.
5. 50 ul of a 0.4% (w/v) Sulforhodamine B solution in 1% (v/v) acetic acid is added per well and incubated for 30 minutes at room temperature.
6. Following staining, plates are washed five times with 1% acetic acid to remove any unbound dye and then allowed to air dry for 5 minutes.
7. Stain is solubilized with 100 uL of 10 mM Tris pH 10.5 per well and placed on an orbital rotator for 5 minutes.
8. Absorbance is read at 570 nm.

Row | Compound | inhibition at 100 µM [%]
1 | O=C(NO)c1cnc(N2CCN(S(=O)(=O)c3ccc(N4CCCCC4)cc3)CC2)s1 [Example 329, 2-(4-{[4-(piperidin-1-yl)phenyl]sulfonyl}piperazin-1-yl)-1,3-thiazole-5-carboxylic acid hydroxyamide] | 97
2 | Cc1ccc(S(=O)(=O)N2CCN(c3ncc(C(=O)NO)s3)CC2)cc1[N+](=O)[O-] [Example 324, 2-{4-[(4-methyl-3-nitrophenyl)sulfonyl]piperazin-1-yl}-1,3-thiazole-5-carboxylic acid hydroxyamide] | 96
3 | O=C(NO)c1cnc(N2CCN(S(=O)(=O)c3ccc(-c4cccc(CN(CCO)CCO)c4)cc3)CC2)s1 [Example 312, 2-{4-[3′-{[bis(2-hydroxyethyl)amino]methyl}-1,1′-biphenylsulfonyl]piperazin-1-yl}-1,3-thiazole-5-carboxylic acid hydroxyamide] | 85
4 | O=C(NO)c1cnc(N2CCN(S(=O)(=O)c3ccc(-c4cccc(CN5CCNCC5)c4)cc3)CC2)s1 [Example 315, 2-{4-[3′-((piperazin-1-yl)methyl)-1,1′-biphenylsulfonyl]piperazin-1-yl}-1,3-thiazole-5-carboxylic acid hydroxyamide] | 95
5 | Cc1ccc(C)c(S(=O)(=O)N2CCN(c3ncc(C(=O)NO)s3)CC2)c1 [Example 326, 2-{4-[(2,5-dimethylphenyl)sulfonyl]piperazin-1-yl}-1,3-thiazole-5-carboxylic acid hydroxyamide] | 98
6 | COCc1cccc(-c2ccc(S(=O)(=O)N3CCN(c4ncc(C(=O)NO)s4)CC3)cc2)c1 [Example 320, 2-{4-[3′-{methoxymethyl}-1,1′-biphenylsulfonyl]piperazin-1-yl}-1,3-thiazole-5-carboxylic acid hydroxyamide] | 92
7 | CCS(=O)(=O)N1CCN(c2ncc(C(=O)NO)s2)CC1 [Example 332, 2-{4-[ethylsulfonyl]piperazin-1-yl}-1,3-thiazole-5-carboxylic acid hydroxyamide] | 30
8 | O=C(NO)c1cnc(N2CCN(S(=O)(=O)c3ccc(-c4csc(CN5CCCC5)c4)cc3)CC2)s1 [Example 307, 2-{4-[4-(2-(pyrrolidin-1-ylmethyl)thien-4-yl)phenylsulfonyl]piperazin-1-yl}-1,3-thiazole-5-carboxylic acid hydroxyamide] | 99
9 | O=C(NO)c1cnc(N2CCN(S(=O)(=O)C(F)(F)F)CC2)s1 [Example 331, 2-{4-[(trifluoromethyl)sulfonyl]piperazin-1-yl}-1,3-thiazole-5-carboxylic acid hydroxyamide] | 76
10 | CN(C)Cc1ccsc1-c1ccc(S(=O)(=O)N2CCN(c3ncc(C(=O)NO)s3)CC2)cc1 [Example 310] | 98
11 | O=C(NO)c1cnc(N2CCN(S(=O)(=O)c3ccc(-c4ccccc4CN4CCCC4)cc3)CC2)s1 [Example 321, 2-{4-[2′-{pyrrolidin-1-ylmethyl}-1,1′-biphenylsulfonyl]piperazin-1-yl]-1,3-thiazole-5-carboxylic acid hydroxyamide] | 95
12 | O=C(NO)c1cnc(N2CCN(S(=O)(=O)c3cccc(OC(F)F)c3)CC2)s1 [Example 323, 2-(4-{[3-(difluoromethoxy)phenyl]sulfonyl}piperazin-1-yl)-1,3-thiazole-5-carboxylic acid hydroxyamide] | 100
13 | C=CCN(CC=C)Cc1cccc(-c2ccc(S(=O)(=O)N3CCN(c4ncc(C(=O)NO)s4)CC3)cc2)c1 [Example 317] | 66
14 | CN(C)Cc1ccoc1-c1ccc(S(=O)(=O)N2CCN(c3ncc(C(=O)NO)s3)CC2)cc1 [Example 308, 2-(4-{4-[3-((dimethylamino)-methyl)-2-furyl]phenylsulfonyl}piperazin-1-yl)-1,3-thiazole-5-carboxylic acid hydroxyamide] | 99
15 | Cc1ccc(S(=O)(=O)N2CCN(c3ncc(C(=O)NO)s3)CC2)c(CN2CCCC2)c1 [Example 327, 2-(4-{[2-(pyrrolidin-1-ylmethyl)-4-methylphenyl]sulfonyl}piperazin-1-yl)-1,3-thiazole-5-carboxylic acid hydroxyamide] | 92
16 | O=C(NO)c1cnc(N2CCN(S(=O)(=O)c3ccc(-c4cc(CN5CCCC5)co4)cc3)CC2)s1 [Example 309] | 83
17 | CNCc1cccc(-c2ccc(S(=O)(=O)N3CCN(c4ncc(C(=O)NO)s4)CC3)cc2)c1 [Example 318, 2-{4-[3′-{[methylamino]methyl}-1,1′-biphenylsulfonyl]piperazin-1-yl}-1,3-thiazole-5-carboxylic acid hydroxyamide] | 86
18 | O=C(NO)c1cnc(N2CCN(S(=O)(=O)c3ccc(-c4cccc(CN5CC=CCC5)c4)cc3)CC2)s1 [Example 313, 2-{4-[3′-(3,6-dihydropyridin-1(2H)-ylmethyl)-1,1-biphenylsulfonyl]piperazin-1-yl}-1,3-thiazole-5-carboxylic acid hydroxyamide] | 92
19 | O=C(NO)c1cnc(N2CCN(S(=O)(=O)c3ccc(N4CCOCC4)cc3)CC2)s1 [Example 330, 2-(4-{[4-(morpholin-4-yl)phenyl]sulfonyl}piperazin-1-yl)-1,3-thiazole-5-carboxylic acid hydroxyamide] | 91
20 | CC(=O)NCc1cccc(-c2ccc(S(=O)(=O)N3CCN(c4ncc(C(=O)NO)s4)CC3)cc2)c1 [Example 319, 2-{4-[3′-{[N-acetylamino]methyl}-1,1′-biphenylsulfonyl]piperazin-1-yl}-1,3-thiazole-5-carboxylic acid hydroxyamide] | 89
21 | CCCCN(C)Cc1cccc(-c2ccc(S(=O)(=O)N3CCN(c4ncc(C(=O)NO)s4)CC3)cc2)c1 [Example 314, 2-{4-[3′-{[(butyl)(methyl)amino]methyl}-1,1′-biphenylsulfonyl]piperazin-1-yl}-1,3-thiazole-5-carboxylic acid hydroxyamide] | 97
22 | CN(CCO)Cc1cccc(-c2ccc(S(=O)(=O)N3CCN(c4ncc(C(=O)NO)s4)CC3)cc2)c1 [Example 311, 2-{4-[3′-{[(2-hydroxyethyl)(methyl)amino]methyl}-1,1′-biphenylsulfonyl]piperazin-1-yl}-1,3-thiazole-5-carboxylic acid hydroxyamide] | 98
23 | COc1ccc(OC)c(S(=O)(=O)N2CCN(c3ncc(C(=O)NO)s3)CC2)c1 [Example 325, 2-{4-[(2,5-dimethoxyphenyl)sulfonyl]piperazin-1-yl}-1,3-thiazole-5-carboxylic acid hydroxyamide] | 98
24 | COCCN(C)Cc1cccc(-c2ccc(S(=O)(=O)N3CCN(c4ncc(C(=O)NO)s4)CC3)cc2)c1 [Example 316, 2-{4-[3′-{[(2-methoxyethyl)(methyl)amino]methyl}-1,1′-biphenylsulfonyl]piperazin-1-yl}-1,3-thiazole-5-carboxylic acid hydroxyamide] | 97
25 | O=C(NO)c1cnc(N2CCN(S(=O)(=O)c3ccc(N4CCCC4)c(F)c3)CC2)s1 [Example 328, 2-(4-{[3-fluoro-4-(pyrrolidin-1-yl)phenyl]sulfonyl}piperazin-1-yl)-1,3-thiazole-5-carboxylic acid hydroxyamide] | 96

Same assay, conditions: compound concentration 100 μM; MCF7 cell growth, 48 hours with drug, SRB staining

Row | Compound | % inhibition MCF7 cells @ 100 μM [%]
26 | 2-[4-(naphtha-2-yl-4-sulfonyl)-piperazin-1-yl]-thiazole-5-carboxylic acid hydroxyamide [Example 201] | 95
27 | 2-(4-{4-[(3-(pyrrolidin-1-ylmethyl)-2-furyl]phenylsulfonyl}piperazin-1-yl)-1,3-thiazole-5-carboxylic acid hydroxyamide [Example 283] | 98
28 | Cc1ccc(S(=O)(=O)N2CCN(c3ncc(C(=O)NO)s3)CC2)cc1 [Example 204, 2-[4-(4-toluene-4-sulfonyl)-piperazin-1-yl]-thiazole-5-carboxylic acid hydroxyamide] | 95.4

System: HDAC (HeLa cell nuclear extract, a mosaic of HDAC enzymes)
Test: In vitro fluorescent histone deacetylase assay (Biomol HDAC fluorescent activity kit)
Format: biochemical
Settings: compound concentration 100 μM; HeLa cell nuclear extract as HDAC source; substrate 50 μM, 10 min, room temperature
Description: Histone deacetylase (HDAC) activity assays were performed using the HDAC fluorescent activity assay/drug discovery kit (Biomol Research Laboratories, Plymouth Meeting, Pa.) essentially according to the manufacturer's instructions. The included HeLa cell nuclear extract, which contains a mosaic of HDAC enzymes and other nuclear factors, was used as the source of HDAC activity. The final substrate concentration in the assay mixture was 50 μM. The reaction was allowed to proceed for 10 min at room temperature before stopping the reaction. Test compounds were prepared as 20 mM stock solutions in DMSO (Molecular Biology grade, Sigma-Aldrich Co., St. Louis, Mo.) and stored at −70° C. Serial dilutions of test compounds were prepared in assay buffer immediately prior to testing. DMSO was determined in a separate trial to have no significant effect on the activity of this assay at concentrations up to 5%; the final DMSO concentration in the wells was no more than 2% and therefore DMSO effects were safely neglected. Assays were performed in white polystyrene 96-well half-area assay plates (Corning, Corning, N.Y.) and measured on a Wallace 1420 fluorescent plate reader (Wallac Oy, Turku, Finland) with an excitation wavelength of 355 nm, an emission wavelength of 460 nm, and a 1 sec signal averaging time.

Row | Compound | % inhibition HDAC @ 100 μM [%]
29 | O=C(NO)c1cnc(N2CCN(S(=O)(=O)c3ccc(-c4cccnc4)cc3)CC2)s1 [Example 293, 2-[4-{(3-pyrido)benzenesulfonyl}-piperazin-1-yl]-thiazole-5-carboxylic acid hydroxyamide] | 100
